In US8440180B2, “Anti-cancer composition comprising aquatic microbial extract” (Ajou University Industry-Academic Cooperation Foundation, priority 2007, dated 2013):

Columns and labels:
Type in all cases: cell-based, human
MMP-9 = experiment: MMP activity test using zymogram; details: 10 ng HGF-treated group compared to the control
Description: Proteins were quantitified from each of the supernatants, 30 μg of each supernatant was taken, and 15 μl APMA was added to each of the supernatants and activated at 37° C. for 1 hour. The activated test samples were added, and treated with MightySlim™ SX 250 (Hoefer, Calif., USA) for 2 4 hours and 48 hours. Then, the resulting test samples were ground to obtain cytoplasm samples. 10 μl of the cytoplasm samples were taken from these cytoplasm samples and added to sample buffers, respectively, and kept for 10 minutes. Then, the cytoplasm samples were added to previously-prepared gels, and then reacted at 4° C. and 125V for 120 minutes using Novex XCell II. The resulting cytoplasm samples were kept in a renaturing buffer at a room temperature for 60 minutes, and, after a developing buffer was replaced by 100 ml of fresh developing buffer, the cytoplasm samples were kept in the fresh developing buffer for 18 hours at 37° C. while stirring. Then, the cytoplasm samples were stained with Coomassie blue for 3 hours, washed with water, and observed at intervals of 10 minutes. In this case, a the gels were destained with a destaining solution (Methanol 400 ml, Acetic acid 100 ml, Distilled water 500 ml), and photographs of the gels were then taken using an image analyzer.

FaDu cells = experiment: Proliferative assay of tumor cell; details: fifth day after the treatment, compared to the DMSO control
Description: In order to evaluate effects of selected aquatic microbial extracts having an anti-cancer effect, FaDu cells (1×10^5/well) treated with 0, 10 and 30 ng/ml of HGF were treated with an aquatic Bacillus sp. strain extract (concentration: 1, 10 and 100 μM), and then incubated for 5 days. Then, 1, 3 and 5-day growth of the FaDu cells were determined by measuring the cell number of the FaDu cells using a haemocytometer. In this case, a medium was replaced by fresh medium. This experiment was repeated five times to statistically analyze the cell number difference according to the amounts of HGF and the extract.

MMP-2 = experiment: Expression level test of MMP using RT-PCR; details: for expression level of the MMP-2: 24 and 48 hours
Description: 1 ml of a cancer cell line was homogenated in a TRIzol (GIBCOBRL, Grand Island, N.Y., USA) reagent, and the total RNA was extracted from the cancer cell line. 2 μg of the total RNA extracted from the hypopharyngeal cancer cell line was put into reaction mixtures of an Omniscript Reverse Transcriptase kit (20511, Qiagen Germany) (including 2.0 μl of 10× Buffer RT, 2.0 μl of dNTP Mix (5 mM each dNTP), 2.0 μl of Oligo-dT primer (10 μM), 1.0 μl of a RNase inhibitor (10 units/μl), 2 units of Omniscript Reverse Transcriptase and 20 μl of RNase-free water), and reverse transcribed at 37° C. for 60 minutes and at 94° C. for 5 minutes to synthesize cDNA. PCR was carried out using Minicycler™ (MJ research, USA), and the synthesized cDNA was added together with 1 unit of Taq DNA polymerase (Roche Diagnostics Co, Indianapolis, USA) and each primer, and then amplified.
DNA sequences of MMP-2 primer and MMP-9 primer used in this experiment were listed as follows.
A PCR procedure was carried out in one initial denaturation cycle at 96° C. for 3 minutes, 30 amplification cycles at 96° C. for 30 seconds, at 55° C. for 30 seconds and at 72° C. for 30 seconds, and one extension cycle at 72° C. for 5 minutes.

HGF: hepatocyte growth factor used to stimulate cancer cells
expression of the MMP-9 (MMP activity evaluation) (MMP-9): slightly increased | cell proliferation on stimulation with hepatocyte growth factor (FaDu cells): statistically significant cell proliferation | expression level of the MMP-2 (MMP-2; 10 ng/ml HGF, vs control): not significantly different | expression level of the MMP-2 (MMP-2; 30 ng/ml HGF): increased | expression level between the control and the HGF-treated groups when MMP-2 was treated with the HGF (MMP-2; second statement, printed MMP-2): no distinct difference
